Where a name gives a salt, the structure may show the parent alone.
What was measured:
[1] = system: Human Plasma; assay: Human plasma anticoagulation, thrombin time (TT); assay type: biochemical; conditions: concentration required to double the clotting time
Method in brief: (§1)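 Compounds added across a wide concentration range to plasma; PT measured with Thromboplastin-C, APTT after 120 s Actin incubation then 0.02 M CaCl2, TT with bovine thrombin (10 NIH units/mL). Clotting-time doubling concentrations estimated by linear extrapolation.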

[2] = Index of bioavailability (% relative activity from plasma TT, oral vs i.v.); assay type: in vivo, rat; conditions: AUC of plasma TT time course, p.o. vs i.v. bolus, dose adjusted
Protocol: Parke Davis) at 37° C. […] Assays are done in duplicate and averaged. […] Each sample population represented alternating sequential time points.

[3] = system: Human Plasma; assay: Human plasma anticoagulation, prothrombin time (PT); assay type: biochemical; conditions: concentration required to double the clotting time
Method in brief: as §1

[4] = target: T1, t-PA (Homo sapiens, UniProt P00750); assay: Kass, t-PA chromogenic substrate assay; assay type: biochemical; conditions: substrate H-D-Ile-Pro-Arg-p-nitroanilide
T1 construct: purchased American Diagnostica, Greenwich, Conn
T1 sequence (P00750 36-562): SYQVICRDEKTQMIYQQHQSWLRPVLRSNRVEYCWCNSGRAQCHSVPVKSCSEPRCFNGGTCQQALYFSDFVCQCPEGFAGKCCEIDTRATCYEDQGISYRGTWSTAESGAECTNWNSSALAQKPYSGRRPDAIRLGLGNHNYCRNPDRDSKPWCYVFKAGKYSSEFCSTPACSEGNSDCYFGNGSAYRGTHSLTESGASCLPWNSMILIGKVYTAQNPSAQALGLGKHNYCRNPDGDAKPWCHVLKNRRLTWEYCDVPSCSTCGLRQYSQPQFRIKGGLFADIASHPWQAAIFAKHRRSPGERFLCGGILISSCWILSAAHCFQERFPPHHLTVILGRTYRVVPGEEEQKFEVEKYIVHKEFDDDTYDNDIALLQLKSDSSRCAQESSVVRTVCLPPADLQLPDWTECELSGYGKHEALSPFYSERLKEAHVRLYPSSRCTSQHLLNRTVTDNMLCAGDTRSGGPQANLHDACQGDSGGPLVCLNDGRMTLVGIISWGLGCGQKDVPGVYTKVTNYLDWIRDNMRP

[5] = target: T2, factor Xa (Homo sapiens, UniProt P00742); assay: Kass, factor Xa chromogenic substrate assay; assay type: biochemical; conditions: substrate N-Benzoyl-Ile-Glu-Gly-Arg-p-nitroanilide
T2 construct: Human factors X, Xa, IXa, XIa, and XIIa are purchased; purchased Enzyme Research Laboratories, South Bend, Ind
T2 sequence (P00742 235-488 limits assumed): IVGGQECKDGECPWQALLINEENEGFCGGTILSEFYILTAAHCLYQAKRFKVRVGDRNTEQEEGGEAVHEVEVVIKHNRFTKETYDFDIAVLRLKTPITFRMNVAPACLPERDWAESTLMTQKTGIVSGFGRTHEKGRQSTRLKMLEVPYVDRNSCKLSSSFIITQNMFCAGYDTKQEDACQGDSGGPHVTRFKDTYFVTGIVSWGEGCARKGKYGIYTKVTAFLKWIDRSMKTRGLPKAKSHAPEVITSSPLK
T2 sequence (P00742 41-179 partner limits assumed): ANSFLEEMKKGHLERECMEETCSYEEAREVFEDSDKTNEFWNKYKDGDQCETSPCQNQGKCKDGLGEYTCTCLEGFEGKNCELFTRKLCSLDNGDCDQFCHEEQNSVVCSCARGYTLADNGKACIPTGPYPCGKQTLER

[6] = system: Human Plasma; assay: Human plasma anticoagulation, activated partial thromboplastin time (APTT); assay type: biochemical; conditions: concentration required to double the clotting time
Method in brief: as §1

[7] = target: T3, Human plasmin (Homo sapiens, UniProt P00747); assay: Kass, plasmin chromogenic substrate assay; assay type: biochemical; conditions: substrate H-D-Val-Leu-Lys-p-nitroanilide
T3 construct: Human plasmin is purchased from Boehringer Mannheim; purchased Boehringer Mannheim, Indianapolis, Ind
T3 sequence (P00747 581-810 limits assumed): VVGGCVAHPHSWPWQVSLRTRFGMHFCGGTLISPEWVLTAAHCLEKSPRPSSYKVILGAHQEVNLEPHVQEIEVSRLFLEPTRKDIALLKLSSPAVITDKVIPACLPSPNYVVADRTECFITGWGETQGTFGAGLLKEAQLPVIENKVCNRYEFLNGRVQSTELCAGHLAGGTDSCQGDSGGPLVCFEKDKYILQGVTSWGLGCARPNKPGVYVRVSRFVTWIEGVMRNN
T3 sequence (P00747 97-580 partner limits assumed): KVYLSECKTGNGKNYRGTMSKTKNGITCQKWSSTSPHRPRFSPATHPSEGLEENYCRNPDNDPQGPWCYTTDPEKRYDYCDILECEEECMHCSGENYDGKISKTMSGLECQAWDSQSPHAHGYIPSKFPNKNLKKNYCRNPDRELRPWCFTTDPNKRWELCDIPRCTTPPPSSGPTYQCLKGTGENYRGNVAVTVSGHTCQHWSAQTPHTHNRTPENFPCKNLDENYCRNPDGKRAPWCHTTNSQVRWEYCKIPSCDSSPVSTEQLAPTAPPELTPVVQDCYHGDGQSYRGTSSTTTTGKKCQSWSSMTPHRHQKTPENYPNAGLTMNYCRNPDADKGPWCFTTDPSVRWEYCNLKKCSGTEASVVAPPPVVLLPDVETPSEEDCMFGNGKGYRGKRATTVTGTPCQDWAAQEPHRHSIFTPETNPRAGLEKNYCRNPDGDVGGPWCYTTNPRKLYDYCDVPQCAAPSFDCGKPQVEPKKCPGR

[8] = target: Human Thrombin (Homo sapiens, UniProt P00734); assay: Inhibition of the amidase activity of thrombin (Kass); assay type: biochemical; conditions: chromogenic substrate N-benzoyl-Phe-Val-Arg-p-nitroanilide; mean over range of concentrations
[9] = target: T4, Bovine trypsin (Bos taurus, UniProt P00760); assay: Kass, trypsin chromogenic substrate assay; assay type: biochemical; conditions: substrate N-Benzoyl-Phe-Val-Arg-p-nitroanilide
T4 construct: Bovine trypsin is purchased from Worthington Biochemicals; purchased Worthington Biochemicals, Freehold, N.J
T4 sequence (P00760 24-246): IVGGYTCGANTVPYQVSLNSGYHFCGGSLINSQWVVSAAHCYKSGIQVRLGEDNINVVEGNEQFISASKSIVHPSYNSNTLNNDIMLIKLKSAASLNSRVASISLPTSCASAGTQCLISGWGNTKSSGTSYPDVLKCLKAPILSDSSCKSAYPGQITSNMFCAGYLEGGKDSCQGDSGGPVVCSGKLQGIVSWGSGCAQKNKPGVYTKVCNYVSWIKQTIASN

[10] = Simoons et al., Circulation, 90, I-231 (1994); cited from earlier work
[11] = Arterio-Venous shunt model; assay type: in vivo, rat; conditions: during infusion reducing thrombus weight to approximately 20% of control
Protocol: The left jugular vein and right carotid artery are cannulated with 20 cm lengths of polyethylene PE 60 tubing. A 6 cm center section of larger tubing (PE 190) with a cotton thread (5 cm) in the lumen, is friction fitted between the longer sections to complete the arterio-venous shunt circuit. Blood circulated through the shunt for 15 minutes before the thread is carefully removed and weighed. The weight of a wet thread is subtracted from the total weight of the thread and thrombus (see J. R. Smith, Br. J. Pharmacol., 77,29 (1982)).
Assays are done in duplicate and averaged.

| Kass × 10^6 (L/mole) t-PA [4] | Kass × 10^6 (L/mole) Xa [5] | Kass × 10^6 (L/mole) Plasmin [7] | Kass × 10^6 (L/mole) Human Thrombin [8] | Kass × 10^6 (L/mole) Trypsin [9] | Molecule | Human Plasma Anticoagulation 2x Clotting time TT [1] | % oral/i.v. activity (Rat) [2] | Human Plasma Anticoagulation 2x Clotting time PT [3] | Human Plasma Anticoagulation 2x Clotting time APTT [6] | anticoagulant in man [10] | PTT extended [11] |
| --- | --- | --- | --- | --- | --- | --- | --- | --- | --- | --- | --- |
| – | – | – | – | – | CN[C@H](Cc1ccccc1)C(=O)N1CCC[C@H]1C(=O)N[C@H](C=O)CCCNC(=N)N.O=S(=O)(O)O [D-MePhe-Pro-Arg-H sulfate] | – | – | – | – | is an anticoagulant in man | – |
| – | – | – | – | – | CCS(=O)(=O)N[C@H](Cc1ccccc1)C(=O)N1CCC[C@H]1C(=O)NCCCCN=C(N)N.Cl [Example 1, EtSO2 -D-Phe-Pro-Agm.HCl] | – | 8% | – | – | – | – |
| – | – | – | – | – | Cl.N=C(N)c1ccc(CNC(=O)[C@@H]2CCCN2C(=O)[C@@H](CC2CCCCC2)NCC(=O)O)cc1 [Example 48, HOOCCH2 -D-Cha-Pro-p-NHCH2 C6 H4 C(NH)NH2.HCl] | 2. ng/mL | – | – | – | – | about 120 % of control |
| < 0.001 × 10^6 L/mole | 0.01 × 10^6 L/mole | 0.01 × 10^6 L/mole | 39 × 10^6 L/mole | 0.24 × 10^6 L/mole | N=C(N)N1CCC(CCNC(=O)[C@@H]2CCCN2C(=O)[C@@H](CC2CCCCC2)NCC(=O)O)CC1 [Example 57, HO2 CCH2 -D-Cha-Pro-4-NHCH2 CH2 -1-amidinopiperidine.HCl] | 14 ng/mL | – | 340 ng/mL | 360 ng/mL | – | – |
| < 0.001 × 10^6 L/mole | < 0.001 × 10^6 L/mole | < 0.001 × 10^6 L/mole | 0.60 × 10^6 L/mole | 0.40 × 10^6 L/mole | Cl.O=C(O)CN[C@H](CC1CCCCC1)C(=O)N1CCC[C@H]1C(=O)NCC1=CCNCC1 [Example 58, HO2 CCH2 -D-Cha-Pro-4-NHCH2 -3,4-dehydropiperidine.HCl] | 710 ng/mL | – | 11,400 ng/mL | 14,300 ng/mL | – | – |
| 0.008 × 10^6 L/mole | 0.03 × 10^6 L/mole | 0.004 × 10^6 L/mole | 63 × 10^6 L/mole | 1.0 × 10^6 L/mole | N=C(N)NCCCCNC(=O)[C@@H]1CCCN1C(=O)[C@@H]1NCC[C@H]2CCCC[C@H]21 [Example 61, N-[4-[(aminoiminomethyl)amino]butyl]-1-[[(4aR,8aR)-decahydro-1(R)-isoquinolinyl]carbonyl]-1-prolinamide trihydrochloride] | 45 ng/mL | – | 756 ng/mL | 679 ng/mL | – | – |
| 0.002 × 10^6 L/mole | 0.62 × 10^6 L/mole | 0.031 × 10^6 L/mole | 3.6 × 10^6 L/mole | 0.96 × 10^6 L/mole | D-hPro-N(PhCH2 CH2)Gly-p-NHCH2 -C6 H4 C(NH)NH2.2HCl [Example 21] | 160 ng/mL | – | 1,000 ng/mL | 2,000 ng/mL | – | – |
| < 0.001 × 10^6 L/mole | < 0.001 × 10^6 L/mole | < 0.001 × 10^6 L/mole | 0.09 × 10^6 L/mole | 0.04 × 10^6 L/mole | EtSO2 -D-Phe-Pro-p-NHCH2 CH2 C6 H4 CNH(NH)NH2.HCl [Example 35] | 4,500 ng/mL | – | 78,400 ng/mL | 50,400 ng/mL | – | – |

| Molecule | Kass × 10^6 (L/mole) t-PA [4] | Kass × 10^6 (L/mole) Xa [5] | Kass × 10^6 (L/mole) Plasmin [7] | Kass × 10^6 (L/mole) Human Thrombin [8] | Kass × 10^6 (L/mole) Trypsin [9] | Human Plasma Anticoagulation 2x Clotting time TT [1] | % oral/i.v. activity (Rat) [2] | Human Plasma Anticoagulation 2x Clotting time PT [3] | Human Plasma Anticoagulation 2x Clotting time APTT [6] | anticoagulant in man [10] | PTT extended [11] |
| --- | --- | --- | --- | --- | --- | --- | --- | --- | --- | --- | --- |
| Cl.Cl.Cl.N=C(N)c1ccc(CNC(=O)[C@@H]2C[C@@H]3CCCC[C@@H]3N2C(=O)[C@H]2CCCCN2)cc1 (relative stereo) [Example 20, D-hPro-Ohi-p-NHCH2 C6 H4 C(NH)NH2.3HCl] | 0.0077 × 10^6 L/mole | 0.10 × 10^6 L/mole | 0.10 × 10^6 L/mole | 10 × 10^6 L/mole | 19 × 10^6 L/mole | 62 ng/mL | 23% | 600 ng/mL | 550 ng/mL | – | – |
| Cl.O=C(O)CN[C@H](CC1CCCCC1)C(=O)N1CCC[C@H]1C(=O)NCCC1=CCNCC1 [Example 59, HO2 CCH2 -D-Cha-Pro-4-NHCH2 CH2 -3,4-dehydro-piperidine.HCl] | < 0.001 × 10^6 L/mole | < 0.001 × 10^6 L/mole | < 0.001 × 10^6 L/mole | 1.10 × 10^6 L/mole | 0.21 × 10^6 L/mole | 420 ng/mL | – | 7,000 ng/mL | 5,500 ng/mL | – | – |
| Cl.O=C(O)CN[C@H](CC1CCCCC1)C(=O)N1CCC[C@H]1C(=O)NCCCC1=CCNCC1 [Example 60, HO2 CCH2 -D-Cha-Pro-4-NHCH2 CH2 CH2 -3,4-dehydro-piperidine.HCl] | < 0.001 × 10^6 L/mole | < 0.001 × 10^6 L/mole | < 0.001 × 10^6 L/mole | 0.24 × 10^6 L/mole | 0.03 × 10^6 L/mole | 3,200 ng/mL | – | 77,700 ng/mL | 22,200 ng/mL | – | – |

Reference: patent US5705487A, “Antithrombotic agents” (priority 1995, dated 1998)
